Values quoted from earlier work in US10487297B2, “Environmentally preferred antimicrobial compositions” (CHEMLINK LABORATORIES, LLC, priority 2013, dated 2019).

Structure (SMILES): CC(=O)N(CCN(C(C)=O)C(C)=O)C(C)=O [TAED, N,N,N′N′-tetraacetylethylenediamine]
- pKa: 8
